How the values were obtained:
[1] = literature; cited from earlier work
[2] = Stability (storage) tests via 2.6-DMBQ / 2-MBQ concentration by HPLC; type: physicochemical
Protocol: The decomposition of the material according to the invention was checked via the chanqes in concentration of the 2.6-dimethoxy-p-benzoquinone. We conducted storage experiments at three different temperatures (room temperature 20° C. 40° C. and 60° C.) The lyophilisate—about 1 g—as stored in test-tubes which were sealed air-tight. The duration of the experiments was 8 weeks, every week three parallel measurements were conducted on samples taken from all three series kept at different temperatures. The quantitative analysis of benzoquinone derivatives was conducted by HPLC.

[3] = tested on: malignant tumour cells; conditions: literature; cited from earlier work

SMILES	fungicidal and bacteriostatic effect [1]	decomposition of 2-methoxy-p-benzoquinone in the stored material ([2]; room temperature)	decomposition of 2-methoxy-p-benzoquinone in the stored material ([2]; samples kept at 40 or 60° C.)	cytotoxicity for malignant tumour cells [3]
COC1=CC(=O)C=CC1=O [2-MBQ, 2-methoxy-p-benzoquinone]	fungicidal and bacteriostatic effect	remained unchanged	could not be shown after one week of storage	–
COC1=CC(=O)C=C(OC)C1=O [2.6-DMBQ, 2.6-dimethoxy-p-benzoquinone]	fungicidal and bacteriostatic effect	–	–	cytotoxic

— patent US6355474B1, “Immunostimulatory and metastasis inhibiting fermented vegetal material” (priority 1997, dated 2002)
